# Molecular target: IDO1 (Homo sapiens, UniProt P14902)
# Experiment: IDO1 Cellular Assay in HeLa Cells Stimulated with IFNγ
# Assay type: cell-based
# Settings: about 48 hours, read-out: Hela IC50
# Protocol: Biological Assays IDO1 Cellular Assay in HeLa Cells Stimulated with IFNγ
# HeLa cells were cultured in complete HeLa culture medium (90% EMEM, 10% heat-inactivated fetal bovine serum) and expanded to about 1×10^9 cells. The cells were then collected and frozen down at 1×10^7 cells/vial in 1 mL frozen medium (90% complete HeLa culture medium, 10% DMSO).
# Compounds to be tested were serially diluted in ten 3-fold steps in DMSO starting from 10 mM DMSO stocks in Echo low volume plate(s).
# Frozen HeLa cells were thawed and transferred into HeLa assay medium (99% complete HeLa culture medium, 1% Pen/Strep) with 20 mL medium/vial of cells. The cells were spun down at 250 g in a table top centrifuge for 5 min and suspended in same volume of HeLa assay medium. The cells were then counted and adjusted to a density of 2×10^5 cells/mL in HeLa assay medium. Sterile L-tryptophan were added to the cells with final concentration of 300 uM L-tryptophan. A small aliquot (2 mL/plate) of HeLa cells were set aside and were not treated with IFNγ, to serve as the Max-E control.
# HeLa cells with and without IFNγ were dispensed to the respective wells of 384-well assay plates containing the compounds. The plates were incubated for about 48 hours at a 37° C., 5% CO2 incubator. Afterwards, 12 μL of 0.5 M methyl isonipecotate in dimethyl sulfoxide were added into each well and the plates were sealed and incubated at 37° C. without CO2 overnight. The plates were centrifuged for 1 min at 200×g. The resulting fluorescence was measured in a Spectramax plate reader (Molecular Devices) with a 400 nm excitation filter and a 510 nm emission filter.
# Potencies were calculated by […] least squares fit to the four parameter logistic IC50 equation.
# IDO1, sequence (P14902 whole entry): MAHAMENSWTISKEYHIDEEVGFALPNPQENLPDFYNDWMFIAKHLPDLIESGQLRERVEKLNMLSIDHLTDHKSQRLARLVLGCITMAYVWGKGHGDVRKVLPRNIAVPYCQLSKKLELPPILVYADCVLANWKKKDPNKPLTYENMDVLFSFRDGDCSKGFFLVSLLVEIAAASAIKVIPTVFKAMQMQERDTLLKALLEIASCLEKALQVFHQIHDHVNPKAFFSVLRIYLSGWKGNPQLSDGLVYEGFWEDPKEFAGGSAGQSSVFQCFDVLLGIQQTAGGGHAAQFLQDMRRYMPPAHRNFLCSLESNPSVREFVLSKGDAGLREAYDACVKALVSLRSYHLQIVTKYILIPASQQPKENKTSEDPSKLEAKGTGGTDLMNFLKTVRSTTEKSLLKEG
row,SMILES,IC50
1,"O=C(C1CC1)N1CCCc2nc(C3(C(=O)Nc4ccc(F)cn4)CCC3)ccc21 [Example 169, 1-[5-(cyclopropanecarbonyl)-5,6,7,8-tetrahydro-1,5-naphthyridin-2-yl]-N-(5-fluoropyridin-2-yl)cyclobutane-1-carboxamide]",55.7 nM
2,"C=CCC(C(=O)Nc1ccc(F)cc1)c1ccc2c(c1)CCCN2C(=O)c1cccc(Cl)c1 (centres unmarked) [Example 58, 2-[1-(3-chlorobenzene-1-carbonyl)-1,2,3,4-tetrahydroquinolin-6-yl]-N-(4-fluorophenyl)pent-4-enamide]",4.3 nM
3,"COC(=O)N1CCCc2cc(C3(C(=O)Nc4ccc(F)cn4)CCC3)ccc21 [Example 206, methyl 6-{1-[(5-fluoropyridin-2-yl)carbamoyl]cyclobutyl}-3,4-dihydroquinoline-1(2H)-carboxylate]",1.5 nM
4,"O=C(c1cc(C2CC2)n[nH]1)N1CCCc2cc(C3(C(=O)Nc4ccc(F)cc4)CCC3)ccc21 [Example 117, 1-[1-(3-cyclopropyl-1H-pyrazole-5-carbonyl)-1,2,3,4-tetrahydroquinolin-6-yl]-N-(4-fluorophenyl)cyclobutane-1-carboxamide]",17.7 nM
5,"C[C@H](C(=O)Nc1ccc(Cl)cc1)c1ccc2c(c1)CCCN2C(=O)c1cccc(Cl)c1 (single isomer, unassigned) [Example 56]",3.1 nM
6,"CCN(C(=O)N1CCc2cc(C3(C(=O)Nc4ccc(Cl)cc4)CCC3)ccc21)C(C)C [Example 274, 5-{1-[(4-chlorophenyl)carbamoyl]cyclobutyl}-N-ethyl-N-(propan-2-yl)-2,3-dihydro-1H-indole-1-carboxamide]",3.3 nM
7,"Cc1cnc(C(=O)N2CCCc3cc(C(C)C(=O)Nc4ccc(F)cc4)ccc32)s1 (centres unmarked) [Example 41, N-(4-fluorophenyl)-2-[1-(5-methyl-1,3-thiazole-2-carbonyl)-1,2,3,4-tetrahydroquinolin-6-yl]propanamide]",4.6 nM
8,"CC(C(=O)Nc1ccc(F)cc1)c1ccc2c(n1)CCCN2C(=O)C1CCCCO1 (single isomer, unassigned) [Example 159, N-(4-fluorophenyl)-2-[5-(oxane-2-carbonyl)-5,6,7,8-tetrahydro-1,5-naphthyridin-2-yl]propanamide]",1.5 nM
9,"Cc1nc(C(=O)N2CCCc3cc(C(C)C(=O)Nc4ccc(F)cc4)ccc32)no1 (centres unmarked) [Example 47, N-(4-fluorophenyl)-2-[1-(5-methyl-1,2,4-oxadiazole-3-carbonyl)-1,2,3,4-tetrahydroquinolin-6-yl]propanamide]",3.4 nM
10,"O=C(N1CCCC1)N1CCCc2cc(C3(C(=O)Nc4ccc(F)cn4)CCC3)ccc21 [Example 103, N-(5-fluoropyridin-2-yl)-1-[1-(pyrrolidine-1-carbonyl)-1,2,3,4-tetrahydroquinolin-6-yl]cyclobutane-1-carboxamide]",76.7 nM

# Next, values leading:
row,IC50,SMILES
1,5.1 nM,"COC(=O)N1CCCc2nc(C3(C(=O)Nc4ccc(Cl)cc4)CCC3)ccc21 [Example 218, methyl 6-{1-[(4-chlorophenyl)carbamoyl]cyclobutyl}-3,4-dihydro-1,5-naphthyridine-1(2H)-carboxylate]"
2,46.4 nM,"CC(C)(O)c1cccc(N2CCCc3nc(C4(NC(=O)c5ccc(F)cc5)CC4)ccc32)n1 [Example 297, 4-fluoro-N-(1-(5-(6-(2-hydroxypropan-2-yl)pyridin-2-yl)-5,6,7,8-tetrahydro-1,5-naphthyridin-2-yl)cyclopropyl)benzamide]"
3,2.8 nM,"CC(NC(=O)c1ccc(F)cc1)c1ccc2c(n1)CCCN2C(=O)c1cc(F)ccn1 (centres unmarked) [Example 282, 2-(1-(4-fluorobenzamido)ethyl)-5-(4-fluoropicolinoyl)-5,6,7,8-tetrahydro-1,5-naphthyridin-1-ium 2,2,2-trifluoroacetate]"
4,14.3 nM,"Cc1cc(N2CCCc3nc(C4(NC(=O)c5ccc(F)cc5)CC4)ccc32)ccn1 [Example 243, 4-fluoro-N-{1-[5-(2-methylpyridin-4-yl)-5,6,7,8-tetrahydro-1,5-naphthyridin-2-yl]cyclopropyl}benzamide]"
5,11.5 nM,"CCn1ccc(C(=O)N2CCCc3nc(C(C)NC(=O)c4ccc(F)cc4)ccc32)n1 (stereo in doubt) [Example 143, N-{(1R)-1-[5-(1-ethyl-1H-pyrazole-3-carbonyl)-5,6,7,8-tetrahydro-1,5-naphthyridin-2-yl]ethyl}-4-fluorobenzamide]"
6,14.5 nM,"COc1ccnc(N2CCCc3nc(C4(NC(=O)c5ccc(F)cc5)CC4)ccc32)n1 [Example 298, 4-fluoro-N-(1-(5-(4-methoxypyrimidin-2-yl)-5,6,7,8-tetrahydro-1,5-naphthyridin-2-yl)cyclopropyl)benzamide]"
7,2.2 nM,"O=C(c1cccc(Cl)c1)N1CCCc2nc(C3(C(=O)Nc4ccc(F)cc4)COC3)ccc21 [Example 267, 3-(5-(3-chlorobenzoyl)-5,6,7,8-tetrahydro-1,5-naphthyridin-2-yl)-N-(4-fluorophenyl)oxetane-3-carboxamide]"
8,27.5 nM,"C[C@H](NC(=O)c1ccc(F)cc1)c1ccc2c(c1)CCCN2C(=O)C1(F)CC1 (single isomer, unassigned) [Example 32]"
9,2.4 nM,"O=C(NC1(c2ccc3c(n2)CCCN3C(=O)C2CCCCO2)CC1)c1ccc(F)cc1 (centres unmarked) [Example 170, 4-fluoro-N-{1-[5-(oxane-2-carbonyl)-5,6,7,8-tetrahydro-1,5-naphthyridin-2-yl]cyclopropyl}benzamide]"

# Same assay, conditions: read-out: Hela IC50
row,IC50,SMILES
1,99.6 nM,"CC(NC(=O)c1ccc(F)cc1)c1ccc2c(n1)CCCN2c1ccc(F)cn1 (centres unmarked) [Example 376, 4-fluoro-N-(1-(5-(5-fluoropyridin-2-yl)-5,6,7,8-tetrahydro-1,5-naphthyridin-2-yl)ethyl)benzamide]"
2,25.6 nM,"Cc1nc(N2CCCc3nc(C(C)NC(=O)c4ccc(Cl)cc4)ccc32)c2cc(F)ccc2n1 (centres unmarked) [Example 360, 2-(1-(4-chlorobenzamido)ethyl)-5-(6-fluoro-2-methylquinazolin-4-yl)-5,6,7,8-tetrahydro-1,5-naphthyridin-1-ium 2,2,2-trifluoroacetate]"
3,1300 nM,"CC(NC(=O)c1ccc(F)cc1)c1ccc2c(n1)CCCN2C(=O)OCCCn1ccnc1 (centres unmarked) [Example 325, 3-(1H-imidazol-1-yl)propyl 6-(1-(4-fluorobenzamido)ethyl)-3,4-dihydro-1,5-naphthyridine-1(2H)-carboxylate]"
4,4.4 nM,"CCCOCCOC(=O)N1CCCc2nc(C(C)NC(=O)c3ccc(F)cc3)ccc21 (centres unmarked) [Example 323, 2-propoxyethyl 6-(1-(4-fluorobenzamido)ethyl)-3,4-dihydro-1,5-naphthyridine-1(2H)-carboxylate]"
5,21.1 nM,"CC(NC(=O)c1ccc(F)cc1)c1ccc2c(n1)CCCN2C(=O)OCc1ccn(C)n1 (centres unmarked) [Example 317, (1-methyl-1H-pyrazol-3-yl)methyl 6-(1-(4-fluorobenzamido)ethyl)-3,4-dihydro-1,5-naphthyridine-1(2H)-carboxylate]"
6,10.5 nM,"CC(NC(=O)c1ccc(F)cc1)c1ccc2c(n1)CCCN2c1cccc(C(F)(F)F)n1 (centres unmarked) [Example 354, 4-fluoro-N-(1-(5-(6-(trifluoromethyl)pyridin-2-yl)-5,6,7,8-tetrahydro-1,5-naphthyridin-2-yl)ethyl)benzamide]"
7,19.8 nM,"CC(NC(=O)c1ccc(F)cc1)c1ccc2c(n1)CCCN2C(=O)OC(C)c1cccnc1 (centres unmarked) [Example 318, 1-(pyridin-3-yl)ethyl 6-(1-(4-fluorobenzamido)ethyl)-3,4-dihydro-1,5-naphthyridine-1(2H)-carboxylate]"
